Data reported in PMC12153356, “An antisense oligomer conjugate with unpredicted bactericidal activity against Fusobacterium nucleatum” (mBio, 2025).
Entries after “also recorded” stand apart in the source; their conditions may differ.

Experiments:
[1] = tested on: F. nucleatum subsp. nucleatum ATCC 23726 (FNN23); test: MIC determination and growth inhibition assay (broth microdilution, OD600 over time); assay type: cell-based, Fusobacterium nucleatum subsp. nucleatum ATCC 23726; conditions: for Growth inhibition of FNN23: 10 µM compound, 1 × 10^5 CFU/mL, growth inhibition = no visible growth (OD600 <0.01) after 120 h
Protocol: To test CPP-PNA conjugates for growth inhibition, we diluted mid-exponential phase cultures of FNN23 to 1 × 10^5 colony forming units (CFUs) per milliliter in Mueller-Hinton Broth (MHB) and incubated the diluted bacteria with 10 µM of either (KFF)3K- or (RXR)4XB- conjugated PNAs targeting acpP, ftsZ or gyrA. Growth was monitored over time by OD600 measurements, with growth inhibition defined as no visible growth (OD600 <0.01) after 120 h. […] Based on these findings, we conclude that CPP-PNAs targeting fusobacterial mRNAs are not effective in antisense inhibition.
(§1) The following fusobacterial strains were used in this study: Fusobacterium nucleatum subsp. nucleatum ATCC 23726 (FNN23) acquired from the American Type Culture Collection (ATCC), F. nucleatum subsp. nucleatum ATCC 25586 (FNN25), F. nucleatum subsp. vincentii ATCC 49256 (FNV), and F. nucleatum subsp. polymorphum ATCC 10953 (FNP) acquired from the German Collection of Microorganisms and Cell Culture (DSMZ), F. nucleatum subsp. animalis 7_1 (FNA) and F. periodonticum 2_1_31 (FPE) both received as a kind gift from E. Allen-Vercoe (University of Guelph, Canada). All strains were routinely grown at 37°C in 80:10:10 (N2:H2:CO2) anaerobic conditions on 2% agar supplemented BHI plates (BHI, 1% [wt:vol] dried yeast extract, 1% [vol:vol] 50% sterile-filtered glucose solution, 5 µg/mL of hemin; 1% [vol:vol] fetal bovine serum) from frozen 20% glycerol stocks kept at −80°C. For liquid growth, the strains were cultured in Columbia broth (ColB; BD Difco). Precultures were prepared 24 h before inoculating the working culture at a 1:50 dilution in fresh ColB until OD600 0.5 was reached. Cultures were then diluted in non-cation adjusted Mueller-Hinton Broth (MHB, BD Difco) to the desired CFU/mL number. P. gingivalis (DSM 20709) was purchased from DSMZ and grown at 37°C in anaerobic conditions as mentioned above on 2% agar supplemented BHI+ plates (BHI, 1% [wt:vol] dried yeast extract, 1% [vol:vol] 50% sterile filtered glucose solution, 5 µg/ml of hemin; 10% [vol:vol] fetal bovine serum; and 1 µg/mL vitamin K3) for 4 days. For liquid growth, P. gingivalis was cultured in BHI+ medium (BHI, BD Difco supplemented with 1% [vol:vol] 50% sterile-filtered glucose solution, 5 µg/mL of hemin; 1% [vol:vol] fetal bovine serum, and 1 µg/mL vitamin K3). Precultures were prepared 24 h before inoculating the working culture at a 1:20 dilution in BHI+ until OD600 of 0.5 was reached. All plates, media, buffers, and reagents were brought into the anaerobic chamber the day before usage to ensure full oxygen depletion.
To determine the MIC value, broth microdilutions were performed according to the standard protocol with some modifications ([119]). An overnight bacterial culture was diluted in a fresh ColB medium and grown to OD600 0.5 (mid-exponential phase). […] To determine the growth inhibition of P. gingivalis, an o.n. culture grown in BHI+ was diluted 1:1,500 in MHB to obtain 1 × 10^5 CFU/mL. E. coli K12, E. coli Nissle 1917, and S. enterica o.n. cultures grown in MHB were diluted 1:1,800 in fresh MHB to obtain 1 × 10^5 CFU/mL. In total, 190 µL of diluted bacterial cultures were pipetted into a transparent 96-well plate (Nunc, Thermo Fischer Scientific) together with 10 µL of respective 20× CPP or CPP-PNA stock or water as control. Bacterial growth was monitored by measuring OD600 every 20 min with constant shaking in a plate reader (Biotek) under the normal atmospheric environment or positioned in the anaerobic chamber with double orbital shaking every 20 min prior to each measurement with 237 cpm at 37°C for 120 h.

[2] = tested on: F. nucleatum subsp. animalis 7_1 (FNA); test: Growth inhibition assay; assay type: cell-based, Fusobacterium nucleatum subsp. animalis 7_1; conditions: 10 µM, MHB, 1 × 10^5 CFU/mL input, three replicates
Description: as §1, with “For liquid growth, P. gingivalis was cultured in BHI+ medium (BHI, BD Difco supplemented with 1% [vol:vol] 50% sterile-filtered glucose solution, 5 µg/mL of hemin; 1% [vol:vol] fetal bovine serum, and 1 µg/mL vitamin K3). Precultures were prepared 24 h before inoculating the working culture at a 1:20 dilution in BHI+ until OD600 of 0.5 was reached. All plates, media, buffers, and reagents were brought into the anaerobic chamber the day before usage to ensure full oxygen depletion.” left out
To determine the MIC value, broth microdilutions were performed according to the standard protocol with some modifications ([119]). […] Bacterial growth was monitored by measuring OD600 every 20 min with constant shaking in a plate reader (Biotek) under the normal atmospheric environment or positioned in the anaerobic chamber with double orbital shaking every 20 min prior to each measurement with 237 cpm at 37°C for 120 h.

E. coli K12 MG1655 = test: Growth inhibition assay; assay type: cell-based, Escherichia coli K12; conditions: 10 µM, MHB, 1 × 10^5 CFU/mL input, aerobic, 24 h
Protocol: Aerobic bacterial culture was conducted with E. coli K12 MG1655 (provided by D. Lee), E. coli Nissle 1917, and S. enterica serovar Typhimurium SL1344 (provided by D. Bumann, Biocenter Basel, Switzerland). The strains were streaked on lysogeny broth plates, incubated o.n. at 37°C and cultured in non-cation-adjusted MHB with aeration at 37°C and 220 rpm constant shaking.
To determine the MIC value, broth microdilutions were performed according to the standard protocol with some modifications ([119]). An overnight bacterial culture was diluted in a fresh ColB medium and grown to OD600 0.5 (mid-exponential phase). Fusobacteria were then diluted 1:2,500 or 1:250 in fresh MHB to obtain 1 × 10^5 CFU/mL or 1 × 10^6 CFU/mL as indicated. To determine the growth inhibition of P. gingivalis, an o.n. culture grown in BHI+ was diluted 1:1,500 in MHB to obtain 1 × 10^5 CFU/mL. E. coli K12, E. coli Nissle 1917, and S. enterica o.n. cultures grown in MHB were diluted 1:1,800 in fresh MHB to obtain 1 × 10^5 CFU/mL. […] Bacterial growth was monitored by measuring OD600 every 20 min with constant shaking in a plate reader (Biotek) under the normal atmospheric environment or positioned in the anaerobic chamber with double orbital shaking every 20 min prior to each measurement with 237 cpm at 37°C for 120 h.

Substance	Growth inhibition of FNN23 ([1]; MHB)	Effect on FNN23 at higher inoculum ([1]; 10 µM, 10^7 CFU/mL in MHB (Fig. S3B))	Growth inhibition of FNN23 by further batches of FUS79 ([1]; batch reordered from original vendor and in-house synthesis, MHB, 1 x 10^5 CFU per ml (Fig. S2A and B))	MIC of FUS79 ([1]; dilution series, FNN23 in MHB at 1 × 10^5 CFU/mL input, anaerobic, 37°C, OD600 <0.01, three replicates (Fig. 3A)) [µM]	Effect on FNN23 in brain heart infusion (BHI) ([1]; peptide-rich medium BHI, 1 x 10^5 CFU per ml input (Fig. S3C))	Effect on FNN23 in Columbia broth (ColB) ([1]; peptide-rich medium ColB, 1 x 10^5 CFU per ml input (Fig. S3C))	Growth inhibition of FNA [2]	Growth inhibition of E. coli K12 (E. coli K12 MG1655)
(RXR)4XB-GACATAATTGT [FUS79, non-targeting (RXR)4XB-PNA 11-mer control, (RXR)4XB-…]	completely inhibited growth; also recorded: inhibited the growth	no longer bactericidal	Both batches confirmed the FUS79-mediated growth inhibition	10	no effect	no effect	inhibited the growth	no growth inhibition
RXRRXRRXRRXRXB [PNAscr]	no impact on growth						growth retardation compared with the water control	no growth inhibition
